Values joined by “and” are separate entries in the source; they are usually repeats but may differ in a detail not shown here. Identical values can stand only once. Like-named read-outs stand apart in the source and are kept apart here.
Legend:
[1] = molecular target: T1, human dopamine-β-hydroxylase (Homo sapiens, UniProt P09172); assay: Human DBH activity, conversion of tyramine to octopamine (HPLC); format: biochemical; settings: for IC50: 0.1 mM tyramine, 4 mM ascorbate, pH 5.2
T1 construct: Human secretory DBH was purified from the culture medium of the neuroblastoma cell line SK-N-SH; endogenous in cells; host or cells: SK-N-SH neuroblastoma cells; secreted enzyme purified in house from the culture medium on lentil lectin-sepharose
T1 sequence (P09172 40-617 limits assumed): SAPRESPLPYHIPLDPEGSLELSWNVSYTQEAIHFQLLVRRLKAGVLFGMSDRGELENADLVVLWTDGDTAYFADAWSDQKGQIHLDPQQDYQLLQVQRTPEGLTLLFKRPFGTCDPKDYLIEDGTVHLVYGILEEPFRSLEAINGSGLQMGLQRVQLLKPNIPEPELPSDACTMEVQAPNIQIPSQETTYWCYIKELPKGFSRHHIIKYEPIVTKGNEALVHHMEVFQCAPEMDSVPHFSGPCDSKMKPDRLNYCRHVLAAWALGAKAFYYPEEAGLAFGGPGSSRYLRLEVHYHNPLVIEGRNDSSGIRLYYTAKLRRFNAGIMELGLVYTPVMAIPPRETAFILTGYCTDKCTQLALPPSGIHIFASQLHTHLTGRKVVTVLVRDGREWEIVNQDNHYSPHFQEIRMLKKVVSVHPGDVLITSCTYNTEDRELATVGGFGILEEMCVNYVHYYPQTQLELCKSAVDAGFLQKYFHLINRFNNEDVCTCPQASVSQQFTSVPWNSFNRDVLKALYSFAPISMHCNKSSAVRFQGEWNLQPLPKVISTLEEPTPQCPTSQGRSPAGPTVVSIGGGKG
Method: (§1) Bovine and human dopamine-β-hydroxylase activity was assayed by measuring the conversion of tyramine to octopamine. Bovine adrenal dopamine-β-hydroxylase was obtained from Sigma Chemicals (St Louis, Mo., USA) whereas human dopamine-β-hydroxylase was purified from the culture medium of the neuroblastoma cell line SK-N-SH. The assay was performed at pH 5.2 and 32° C. in a medium containing 0.125 M NaAc, 10 mM fumarate, 0.5-2 μM CuSO4, 0.1 mg.ml^−1 catalase, 0.1 mM tyramine and 4 mM ascorbate. In a typical assay, 0.5-1 milliunits of enzyme were added to the reaction mixture and, subsequently, a substrate mixture containing catalase, tyramine and ascorbate was added to initiate the reaction (final volume of 200 μl). Samples were incubated with or without the appropriate concentration of nepicastat (S-enantiomer) or (R)-5-Aminomethyl-1-(5,7-difluoro-1,2,3,4-tetrahydronaphth-2-yl)-2,3-dihydro-2-thioxo-1H-imidazole hydrochloride (R-enantiomer) at 37° C. for 30-40 minutes. The reaction was quenched by the stop solution containing 25 mM EDTA and 240 μM 3-hydroxytyramine (internal standard). The samples were analysed for octopamine by reverse phase high pressure liquid chromatography (HPLC) using ultraviolet-detection at […]. The HPLC chromatography run was carried out at the flow rate of 1 ml.min^−1 using a LiChroCART 125-4 RP-18 column and isocratic elution with 10 mM acidic acid, 10 mM 1-heptane sulfonic acid, 12 mM tetrabutyl ammonium phosphate and 10% methanol. The remaining percent activity was calculated based on controls, corrected using internal standards and fitted to a non-linear four-parameter concentration-response curve.
(§2) In vitro assay of DBH activity. DBH activity was assayed by measuring the conversion of tyramine to octopamine. Bovine DBH from adrenal glands was obtained from Sigma Chemical Co (St Louis, Mo.). Human secretory DBH was purified from the culture medium of the neuroblastoma cell line SK-N-SH. The assay was performed at pH 5.2 and 32° C. in 0.125 M NaOAc, 10 mM fumarate, 0.5-2 μM CUSO4, 0.1 mg/mL catalase, 0.1 mM tyramine and 4 mM ascorbate. In a typical assay, 0.5-1 milliunits of enzyme were added to the reaction mixture and then a substrate mixture containing catalase, tyramine and ascorbate was added to initiate the reaction (final volume of 200 μL). Samples were incubated with or without the appropriate concentration of the inhibitor at 37° C. for 30-40 min. The reaction was quenched by the stop solution containing 25 mM EDTA and 240 μM 3-hydroxytyramine (internal standard). The samples were analysed for octopamine by reverse phase HPLC using UV detection at […]. The remaining percent activity was calculated based on controls (without inhibitor), corrected using internal standards and fitted to a non-linear 4-parameter concentration-response curve to obtain IC50 values.
(§3) Bovine DBH from adrenal glands was obtained from Sigma Chemicals (St. Louis, Mo.). Human secretory DBH was purified from the culture medium of the neuroblastoma cell line SK-N-SH and was used to obtain the inhibition data. A lentil lectin-sepharose column containing 25 ml gel was prepared and equilibrated with 50 mM KH2PO4, pH 6.5, 0.5 M NaCl. The column was eluted with 35 ml of 10% methyl α, D-mannopyranoside in 50 mM KH2PO4, pH 6.5, 0.5 M NaCl at 0.5 ml/min. Fraction containing most enzymatic activities were pooled and concentrated with an Amicon stirred cell using a YM30 membrane. Methyl α, D-mannopyranoside was removed by buffer exchange with in 50 mM KH2PO4, pH 6.5, 0.1 M NaCl. The concentrated enzyme solution was aliquoted and stored at −25° C. An HPLC assay was used to measure DBH activity using tyramine and ascorbate as substrates. […]

[2] = molecular target: T2, bovine dopamine-β-hydroxylase (Bos taurus, UniProt P15101); assay: Bovine DBH activity, conversion of tyramine to octopamine (HPLC); format: biochemical; settings: for IC50: 0.1 mM tyramine, 4 mM ascorbate, pH 5.2
T2 construct: Bovine DBH from adrenal glands was obtained from Sigma Chemicals; purchased Sigma Chemicals (St Louis, Mo.); host or cells: bovine adrenal glands
T2 sequence (P15101 1-610): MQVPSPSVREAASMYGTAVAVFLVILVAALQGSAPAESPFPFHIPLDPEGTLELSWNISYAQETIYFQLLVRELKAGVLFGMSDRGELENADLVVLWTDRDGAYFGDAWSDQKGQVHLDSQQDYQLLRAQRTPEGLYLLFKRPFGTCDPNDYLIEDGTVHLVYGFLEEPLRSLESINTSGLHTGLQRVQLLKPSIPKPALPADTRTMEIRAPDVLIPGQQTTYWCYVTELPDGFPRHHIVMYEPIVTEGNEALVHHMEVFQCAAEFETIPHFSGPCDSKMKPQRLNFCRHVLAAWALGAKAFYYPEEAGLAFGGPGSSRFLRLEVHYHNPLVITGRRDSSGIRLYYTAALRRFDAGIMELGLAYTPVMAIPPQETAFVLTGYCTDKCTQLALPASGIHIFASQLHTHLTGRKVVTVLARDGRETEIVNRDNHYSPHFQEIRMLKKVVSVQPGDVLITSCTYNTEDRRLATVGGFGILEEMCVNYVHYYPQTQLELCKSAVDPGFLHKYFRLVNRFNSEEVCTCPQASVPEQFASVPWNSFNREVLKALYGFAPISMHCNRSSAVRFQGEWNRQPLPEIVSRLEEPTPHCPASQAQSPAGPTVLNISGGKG
Method: as §1, §2
as §3, with “membrane.” for “membrane. Methyl α, D-mannopyranoside was removed by buffer exchange with in 50 mM KH2PO4, pH 6.5, 0.1 M NaCl. The concentrated enzyme solution was aliquoted and stored at −25° C. An HPLC assay was used to measure DBH activity using tyramine and ascorbate as substrates.”

[3] = bovine and human DBH taken together

| SMILES | IC50 [1] | IC50 [2] | potency relative to SKF 102698 [1] | potency relative to the R enantiomer [1] | potency relative to SKF 102698 [1, 3] | potency relative to the R enantiomer [1, 3] | selectivity for dopamine-β-hydroxylase ([1]; vs the other enzymes studied) | potency relative to SKF 102698 [2] | potency relative to the R enantiomer [2] |
| --- | --- | --- | --- | --- | --- | --- | --- | --- | --- |
| Cl.NCc1c[nH]c(=S)n1[C@@H]1CCc2c(F)cc(F)cc2C1 [R-enantiomer, (R)-5-Aminomethyl-1-(5,7-difluoro-1,2,3,4-tetrahydronaphth-2-yl)-2,3-dihydro-2-thioxo-1H-imidazole hydrochloride] | 18.3 nM and 18 nM | 25.1 ± 0.6 nM | – | – | – | – | – | – | – |
| Cl.NCc1c[nH]c(=S)n1[C@H]1CCc2c(F)cc(F)cc2C1 [nepicastat, (S)-5-Aminomethyl-1-(5,7-difluoro-1,2,3,4-tetrahydronaphth-2-yl)-2,3-dihydro-2-thioxo-1H-imidazole hydrochloride] | 9 nM | 8.5 ± 0.8 nM | 9 fold | 2 fold | 8-9 fold | 2-3 fold | > 1000 fold | 8 fold | 3 fold |
| Fc1cc(F)cc(Cn2cc[nH]c2=S)c1 [SKF 102698, reference compound] | 85 ± 3.7 nM | 67 ± 4.2 nM | – | – | – | – | – | – | – |

Source: patent US20090054403A1, “Treatment of Post-Traumatic Stress Disorder” (priority 2007, published 2009)
